# Test results as given in patent US10017509B2, “Macrocylic pyrimidine derivatives” (Janssen Pharmaceutica NV, priority 2014, dated 2018).
# Tests used:
# EF2K [1] = biological target: T1, EF2K (Homo sapiens, UniProt O00418); assay: Biochemical EF2K lysate-based kinase assay (AlphaLISA p-eEF2 Thr56); conditions: pIC50 = -log IC50 (M), read-out: eEF2K_C_alphalisa pIC50 (converted)
# T1 construct: host or cells: LN-229 cell lysate
# T1 sequence (O00418 1-725): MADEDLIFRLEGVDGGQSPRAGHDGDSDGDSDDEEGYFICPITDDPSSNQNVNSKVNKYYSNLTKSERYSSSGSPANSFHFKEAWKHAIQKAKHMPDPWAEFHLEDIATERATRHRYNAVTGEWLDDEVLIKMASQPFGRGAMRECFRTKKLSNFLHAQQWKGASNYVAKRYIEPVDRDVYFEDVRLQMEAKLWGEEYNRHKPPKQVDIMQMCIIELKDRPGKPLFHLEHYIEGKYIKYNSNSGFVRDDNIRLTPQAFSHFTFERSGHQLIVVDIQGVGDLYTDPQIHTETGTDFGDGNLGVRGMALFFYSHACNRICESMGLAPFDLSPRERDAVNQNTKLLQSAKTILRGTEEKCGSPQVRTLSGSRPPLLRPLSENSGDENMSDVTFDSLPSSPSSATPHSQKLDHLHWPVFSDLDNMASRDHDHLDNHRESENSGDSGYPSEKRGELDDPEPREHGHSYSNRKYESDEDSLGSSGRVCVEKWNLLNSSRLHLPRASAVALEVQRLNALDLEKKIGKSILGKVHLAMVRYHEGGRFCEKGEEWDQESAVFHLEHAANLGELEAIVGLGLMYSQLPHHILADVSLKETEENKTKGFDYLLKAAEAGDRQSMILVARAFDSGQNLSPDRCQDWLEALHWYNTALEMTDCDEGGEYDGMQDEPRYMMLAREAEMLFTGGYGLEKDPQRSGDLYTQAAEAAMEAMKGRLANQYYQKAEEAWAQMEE
# Source text: Biochemical EF2K Lysate-Based Kinase Assay
# LN-229 cells were purchased from ATCC (CRL-2611); these are glioblastoma cells. Cell lysates from LN229 were used in this kinase assay to provide both the kinase and the substrate (EF2). The AlphaLISA p-eEF2 (Thr56) detection assay was developed using a sandwich assay format with two specific antibodies recognizing different epitopes of the target, including one antibody against the phosphorylation site of interest. One anti-eEF2 antibody was conjugated onto AlphaLISA Acceptor beads, while the second antibody was biotinylated and captured by streptavidin coated Donor beads.
# Compound was mixed with LN-229 cell lysates in the presence of a kinase buffer (e.g. HEPES) at a pH of 6.6, containing 10 mM Mg^2+ (e.g. magnesium acetate) and 10 mM adenosine-tri-phosphate (ATP) and incubated at room temperature for 15 minutes. The kinase reaction was stopped with excess ethylenediaminetetraacetic acid disodium salt and the biotinylated-anti phospho eEF2 antibody (3 nM) was added for 1 hour. Then the anti-EF2 acceptor beads (10 μg/ml) as well as the streptavidin coated donor beads (20 μg/ml) were added for 1 hour, and the AlphaLISA signal was measured in an Envision instrument once, left overnight, and measured again for the final read.
# (§1) (pIC50 is −log IC50 where IC50 represents the concentration expressed in M at which the test compound gives 50% inhibition)
# EF2K [2] = biological target: T1, EF2K; assay: EF2K cell-based assay (P-EF2 AlphaLISA, 2-deoxyglucose stimulated MCF10A cells); conditions: 2.5 mM 2-deoxyglucose stimulated, P-EF2 Thr56, pIC50 = -log IC50 (M), read-out: eEF2K_C_PThr56 pIC50 (converted)
# Protocol: In this assay, 2.5 mM 2-deoxyglucose was used to deplete intracellular ATP and activate 5′ adenosine monophosphate-activated protein kinase (AMPK) in the immortalized epithelial breast cell lines, MCF10A. MCF 10A cells were purchased from ATCC (CRL-10317).
# MCF10A cells are seeded at a density of 1.25×10^5 Cells/ml at 100 μl/well in a 96-well plate and incubated for 24 hours (37° C., 5% CO2). Compound is added for 1 hour, and cell are stimulated with 2.5 mM of 2-deoxy-glucose for 4 hours. Medium is then removed, and cells are lysed in an ice-cold buffer M-PER (Thermo Scientific, 78501), containing protease and phosphatase inhibitors. P-EF2 levels are determined in these lysates using the P-EF2 AlphaLISA described above.
# as §1
# [3] = biological target: Vps34 (PIK3C3 lipid kinase) (Homo sapiens, UniProt Q8NEB9); assay: Biochemical Vps34 lipid kinase assay (ADP-Glo); conditions: for IC50: serial half-log dilution 10 μM to 0.3 nM, pIC50 = -log IC50 (M); for remaining activity at 1 µM: 1 h, read-out: VPS34_1microM_% of cntrl
# Chain of Vps34 (PIK3C3 lipid kinase) (Q8NEB9 whole entry, species assumed): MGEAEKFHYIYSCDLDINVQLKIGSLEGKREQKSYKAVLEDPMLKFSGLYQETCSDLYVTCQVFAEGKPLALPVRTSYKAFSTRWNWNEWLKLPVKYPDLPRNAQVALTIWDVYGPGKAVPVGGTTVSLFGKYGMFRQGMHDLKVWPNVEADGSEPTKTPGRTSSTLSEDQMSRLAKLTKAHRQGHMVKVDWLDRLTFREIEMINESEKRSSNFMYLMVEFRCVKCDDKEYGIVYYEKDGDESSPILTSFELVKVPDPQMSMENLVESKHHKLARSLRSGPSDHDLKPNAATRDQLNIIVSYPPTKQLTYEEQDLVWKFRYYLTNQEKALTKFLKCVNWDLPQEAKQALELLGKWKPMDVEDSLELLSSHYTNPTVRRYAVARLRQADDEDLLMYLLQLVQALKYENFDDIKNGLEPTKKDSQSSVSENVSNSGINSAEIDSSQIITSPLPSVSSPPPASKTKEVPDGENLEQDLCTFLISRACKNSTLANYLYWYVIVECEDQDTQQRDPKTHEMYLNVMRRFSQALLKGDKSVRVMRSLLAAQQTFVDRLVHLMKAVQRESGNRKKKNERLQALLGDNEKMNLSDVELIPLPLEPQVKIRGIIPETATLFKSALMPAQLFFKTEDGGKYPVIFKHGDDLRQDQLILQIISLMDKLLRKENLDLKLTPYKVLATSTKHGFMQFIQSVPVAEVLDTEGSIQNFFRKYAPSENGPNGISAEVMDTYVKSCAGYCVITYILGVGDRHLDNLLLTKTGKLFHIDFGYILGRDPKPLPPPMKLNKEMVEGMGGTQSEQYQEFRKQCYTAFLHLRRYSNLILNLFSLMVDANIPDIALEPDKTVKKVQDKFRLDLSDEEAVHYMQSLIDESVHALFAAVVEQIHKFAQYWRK
# Protocol: Biochemical Vps34 Lipid Kinase Assay
# A non-radiometric kinase assay (ADP-Glo™ Assay, Promega, Madison, Wi, USA) was used for measuring the kinase activity of the PIK3C3 lipid kinase. All kinase assays were performed in 96-well half-area microtiter plates in a 25 μl reaction volume. The reaction cocktail was pipetted in 3 steps in the following order: • 10 μl of ATP solution (in assay buffer, see below) • 5 μl of test sample in 5% DMSO 10 μl of enzyme/substrate mixture
# All lipid kinase assays contained 50 mM HEPES (4-(2-hydroxyethyl)-1-piperazineethanesulfonic acid)-NaOH, pH 7.5, 1 mM EGTA ((ethylene glycol tetraacetic acid), 100 mM NaCl, 0.03% CHAPS (3-[(3-Cholamidopropyl)dimethylammonio]-1-propanesulfonate), 2 mM DTT (Dithiothreitol), 20 μM ATP (corresponding to the apparent ATP-Km), kinase (7.6 nM) and substrate (50 μM). The assay for PIK3C3 additionally contained 3 mM MnCl2.
# The reaction cocktails were incubated at 30° C. for 60 minutes. The reaction was stopped with 25 μl ADP-Go™ reagent per well. Plates were incubated for 40 minutes at room temperature, followed by addition of 50 μl kinase detection reagent per well and incubation for 60 minutes at room temperature. Signal was determined with a microplate luminescence reader (Victor, Perkin Elmer). The assay was either performed using a single dose of compound (1 μM final concentration in the assay reaction) with resulting data expressed as residual activity compared to control (DMSO), or using a serial (half-log) dilution of compounds starting at 10 μM and down to 0.3 nM (final concentrations in the assay) with data expressed as the pIC50.
# as §1
# [4] = single dose 1 μM compound, residual activity compared to control (DMSO)
SMILES,IC50 (EF2K [1]),IC50 (EF2K [2]),IC50 [3],"remaining activity at 1 µM [3, 4]","VPS34_1microM_% of cntrl [3, 4]"
CN1CCCN(C)c2ccc(cn2)-c2ccnc(n2)Nc2cccc(c2)CN2CCN(CC2)CC1=O [Compound 1],7.59e-08 M,2.95e-06 M,1.55e-06 M,–,–
O=C1CN2CCN(CC2)Cc2cccc(c2F)Nc2nccc(n2)-c2ccc(nc2)NCCCN1 [Compound 4],8.32e-08 M,8.71e-06 M,4.79e-07 M,29.3%,–
CN1CCCN(C)c2ccc(cn2)-c2ccnc(n2)Nc2cc(F)cc(c2)CN2CCN(CC2)CC1=O [Compound 6],6.61e-07 M,2.45e-05 M,2.51e-07 M,17.4%,–
Cc1cc2cc(c1)Nc1nccc(n1)-c1ccc(nc1)N(C)CCCN(C)C(=O)CN1CCN(CC1)C2 [Compound 8],1.41e-05 M,> 3.02e-05 M,–,41.1%,–
CN1CCCN(C)c2ccc(cn2)-c2ccnc(n2)Nc2ccc(C(N)=O)c(c2)CN2CCN(CC2)CC1=O [Compound 10],3.63e-07 M,1.29e-05 M,2.88e-07 M,10.8%,–
CN1CCCN(C)c2ccc(cn2)-c2ccnc(n2)Nc2ccc(C(=O)O)c(c2)CN2CCN(CC2)CC1=O [Compound 11],4.57e-07 M,> 3.02e-05 M,–,33.3%,–
CNC(=O)c1ccc2cc1CN1CCN(CC1)CC(=O)N(C)CCCN(C)c1ccc(cn1)-c1ccnc(n1)N2 [Compound 12],2.09e-07 M,1.05e-05 M,4.37e-07 M,7.68%,–
O=C1CN2CCN(CC2)Cc2cc(ccc2C(=O)O)Nc2nccc(n2)-c2ccc(nc2)NCCCN1 [Compound 16],2.04e-06 M,> 3.02e-05 M,3.63e-07 M,15.9%,–
CN(C)C(=O)c1ccc2cc1CN1CCN(CC1)CC(=O)N(C)CCCN(C)c1ccc(cn1)-c1ccnc(n1)N2 [Compound 17],1.1e-06 M,> 3.02e-05 M,–,39.5%,–
CN(C)C(=O)c1ccc2cc1CN1CCN(CC1)CC(=O)NCCCNc1ccc(cn1)-c1ccnc(n1)N2 [Compound 18],1.91e-06 M,> 3.02e-05 M,9.12e-07 M,23.4%,–
Cc1c2cccc1Nc1nccc(n1)-c1ccc(nc1)NCCCNC(=O)CN1CCN(CC1)C2 [Compound 19],~1.58e-06 M,> 3.02e-05 M,–,87.1%,–
CC(C)N1CCNc2ccc(cn2)-c2ccnc(n2)Nc2cccc(c2)CN2CCN(CC2)CC1=O [Compound 21],1.1e-06 M,8.71e-06 M,5.01e-07 M,23.6%,–
CC(C)N1CCCNc2ccc(cn2)-c2ccnc(n2)Nc2cccc(c2)CN2CCN(CC2)CC1=O [Compound 22],7.24e-06 M,> 3.02e-05 M,6.17e-06 M,17.3%,–
CN1CCCN(C)c2ccc(cn2)-c2ccnc(n2)Nc2cccc(c2)S(=O)(=O)N2CCN(CC2)CC1=O [Compound 27],2.95e-06 M,> 3.02e-05 M,–,50.7%,–
CN1CCCN(C)c2ccc(cn2)-c2ccnc(n2)Nc2cccc(c2)C(=O)N2CCN(CC2)CC1=O [Compound 28],~5.5e-08 M,> 3.02e-05 M,–,45.6%,–

# The remaining molecules from weak to strong by IC50 [3], led by results:
IC50 (EF2K [1]),IC50 (EF2K [2]),IC50 [3],"remaining activity at 1 µM [3, 4]","VPS34_1microM_% of cntrl [3, 4]",SMILES
1.74e-05 M,> 3.02e-05 M,2e-07 M,5.67%,–,CN1CCCN(C)c2ccc(cn2)-c2ccnc(n2)Nc2cccc(c2)CCN2CCN(CC2)CC1=O [Compound 29]
1.82e-06 M,> 3.02e-05 M,1.62e-07 M,8.85%,–,CN1CCCCN(C)c2ccc(cn2)-c2ccnc(n2)Nc2cccc(c2)CN2CCN(CC2)CC1=O [Compound 20]
1.38e-05 M,> 3.02e-05 M,1.58e-07 M,15.1%,–,Cc1cc2cc(c1)Nc1nccc(n1)-c1ccc(nc1)NCCCNC(=O)CN1CCN(CC1)C2 [Compound 7]
5.01e-07 M,2.24e-05 M,1.51e-07 M,7.45%,–,O=C1CN2CCN(CC2)Cc2cccc(c2)Nc2nccc(n2)-c2ccc(nc2)NCC(O)CN1 (stereo not drawn) [Compound 23]
7.08e-08 M,7.59e-06 M,1.05e-07 M,3.37%,–,N#Cc1ccc2cc1CN1CCN(CC1)CC(=O)NCCCNc1ccc(cn1)-c1ccnc(n1)N2 [Compound 14]
1.48e-05 M,> 3.02e-05 M,1.02e-07 M,–,5.23 % of cntrl,O=C1CN2CCN(CC2)Cc2cccc(c2)Nc2nccc(n2)-c2ccc(nc2)N2CCCC2CN1 (stereo not drawn) [Compound 26]
6.31e-08 M,5.75e-06 M,1e-07 M,4.44%,–,O=C1CN2CCN(CC2)Cc2cc(ccc2F)Nc2nccc(n2)-c2ccc(nc2)NCCCN1 [Compound 2]
~6.03e-06 M,> 3.02e-05 M,9.77e-08 M,8.43%,–,O=C1CN2CCN(CC2)Cc2cc(Cl)cc(c2)Nc2nccc(n2)-c2ccc(nc2)NCCCN1 [Compound 9]
3.98e-07 M,6.76e-06 M,8.71e-08 M,9%,–,CNC(=O)c1ccc2cc1CN1CCN(CC1)CC(=O)NCCCNc1ccc(cn1)-c1ccnc(n1)N2 [Compound 13]
1.07e-07 M,~3.98e-06 M,8.71e-08 M,8.47%,–,O=C1CN2CCN(CC2)Cc2cccc(c2)Nc2nccc(n2)-c2ccc(nc2)NCCCN1 [Compound 31]
7.59e-07 M,2.51e-05 M,6.92e-08 M,7.3%,–,O=C1CN2CCN(CC2)Cc2cc(F)cc(c2)Nc2nccc(n2)-c2ccc(nc2)NCCCN1 [Compound 5]
1.66e-06 M,> 3.02e-05 M,6.76e-08 M,4.43%,–,O=C1CN2CCN(CC2)Cc2ccc(F)c(c2)Nc2nccc(n2)-c2ccc(nc2)NCCCN1 [Compound 3]
6.03e-07 M,2.75e-05 M,5.01e-08 M,1.07%,–,NC(=O)c1ccc2cc1CN1CCN(CC1)CC(=O)NCCCNc1ccc(cn1)-c1ccnc(n1)N2 [Compound 15]
